# Experimental data: patent publication US12227520B2 (priority 2019, dated 2025)
# Like-named read-outs stand apart in the source and are kept apart here.
# Columns and labels:
# HIV-1 (IIIB) = assay: Antiviral assay in MT-4 cells (HIV MT-4 antiviral assay); assay type: cell-based; conditions: Human immunodeficiency virus 1, IIIB, MT4, 120 h, HIV-1 (IIIB) in MT-4 cells, 5 days incubation; read-out: EC50
# Method in brief: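 Read-out is CellTiter-Glo chemiluminescence after 5-day culture at 37° C, giving protection of MT-4 cells from HIV-1 IIIB cytopathicity. Compounds tested in 1:3 dilution series in complete RPMI; controls were no drug, mock infection and 5 μM AZT.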
# [1] = Cytotoxicity assay in MT-4 cells; assay type: cell-based, human; conditions: human, uninfected MT-4 cells, 5 days incubation; read-out: CC50
# Method in brief: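 For cytotoxicity, uninfected MT-4 cells were incubated with compounds 5 days at 37 °C, with 10 μM puromycin marking base cytotoxicity. Parallel plates used HIV-1 IIIB-infected (1:250 stock dilution) or mock cells with 5 μM AZT and no-drug controls. Read-out: CellTiter-Glo chemiluminescence.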
# pLai RLuc reporter virus = assay: microbe, parasite or virus in culture; assay type: cell-based, HIV; conditions: Human immunodeficiency virus 1, 72 h
# Method in brief: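 Read-out is Renilla luciferase after 72 h at 37 °C in MT-4 cells infected 2 h beforehand with pLai RLuc reporter virus; compounds diluted 1:3.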
# [2] = read-out: Antiviral Serum Shift RLuc 50% HS, HS/CCM (RPMI media, 10% FBS, 50% HS, 1% P/S), 72-h incubation
# [3] = read-out: Antiviral Serum Shift RLuc CCM, CCM (RPMI media, 10% FBS, 1% P/S), 72-h incubation
Structure (SMILES),EC50 (HIV-1 (IIIB)) [nM],CC50 at 5 days [1] [nM],EC50 (pLai RLuc reporter virus; [2]) [nM],EC50 (pLai RLuc reporter virus; [3]) [nM]
"O=C(NCc1c(F)cc(F)cc1F)c1cn2c(c(O)c1=O)C(=O)N1CCC=C(F)[C@@H]2C1 (single isomer, unassigned) [Example 75-1]",3.76,15100,298,0.595
"C[C@]12CCCCN(C1)C(=O)c1c(O)c(=O)c(C(=O)NCc3ccc(F)cc3F)cn12 [Example 173, (7S)—N-(2,4-difluorobenzyl)-12-hydroxy-7-methyl-1,11-dioxo-1,4,5,6,7,11-hexahydro-3H-2,7-methanopyrido[1,2-a][1,4]diazonine-10-carboxamide]",1.24,12500,13.9,0.363
"O=C(NCc1ccc(F)cc1F)c1cn2c(c(O)c1=O)C(=O)N1C[C@@H]2CCC[C@@H]1C(F)F [Example 189, (3R,7S)—N-(2,4-difluorobenzyl)-3-(difluoromethyl)-12-hydroxy-1,11-dioxo-1,4,5,6,7,11-hexahydro-3H-2,7-methanopyrido[1,2-a][1,4]diazonine-10-carboxamide]",1.56,12300,6.06,0.411
"O=C(NCc1c(F)cc(F)cc1F)c1cn2c(c(O)c1=O)C(=O)N1CCC[C@H]3C[C@@]32C1 [Example 66-2, (1aS,11aS)—N-(2,4,6-trifluorobenzyl)-7-hydroxy-6,8-dioxo-1a,2,3,4,6,8-hexahydro-1H-5,11a-methanocyclopropa[h]pyrido[1,2-a][1,4]diazonine-9-carboxamide]",1.68,10400,4.55,0.294
"O=C(NCc1c(F)cc(F)cc1F)c1cn2c(c(O)c1=O)C(=O)N1CCCC(F)(F)[C@@H]2C1 (single isomer, unassigned) [Example 10-1]",3.2,37100,1140,1.02
CC[C@]1(O)CCCN2C[C@H]1n1cc(C(=O)NCc3c(F)cc(F)cc3F)c(=O)c(O)c1C2=O [Example 93],2.24,> 40400,1.55,0.462
"O=C(NCc1c(F)cc(F)cc1F)c1cn2c(c(O)c1=O)C(=O)N1CC[C@H](F)CC[C@H]2C1 [Example 81-1, (5R,8S)-5-fluoro-13-hydroxy-1,12-dioxo-N-(2,4,6-trifluorobenzyl)-1,3,4,5,6,7,8,12-octahydro-2,8-methanopyrido[1,2-a][1,4]diazecine-11-carboxamide]",1.96,23900,0.649,0.466
"O=C(NCc1cccc(Cl)c1F)c1cn2c(c(O)c1=O)C(=O)N1Cc3cc(F)c(F)cc3C[C@@H]2C1 [Example 143-1, (6R)—N-(3-chloro-2-fluorobenzyl)-9,10-difluoro-1-hydroxy-2,14-dioxo-2,7,12,14-tetrahydro-6H-6,13-methanobenzo[f]pyrido[1,2-a][1,4]diazonine-3-carboxamide]",22.7,> 50000,132,4.75
"O=C(NCc1ccc(F)c(Cl)c1F)c1cn2c(c(O)c1=O)C(=O)N1CCC=C(F)[C@H]2C1 (single isomer, unassigned) [Example 123-1]",2.05,13700,3.67,0.316
"O=C(NCc1c(F)cc(F)cc1F)c1cn2c(c(O)c1=O)C(=O)N1C[C@H]2CCCc2ccccc21 [Example 80-2, (6R)-1-hydroxy-2,15-dioxo-N-(2,4,6-trifluorobenzyl)-2,6,7,8,9,15-hexahydro-6,14-methanobenzo[e]pyrido[1,2-a][1,4]diazecine-3-carboxamide]",5.35,13400,7.54,0.618
"O=C(NCc1ccc(F)cc1)c1cn2c(c(O)c1=O)C(=O)N1CCCC[C@H]2C1 [Example 166, (7S)—N-(4-fluorobenzyl)-12-hydroxy-1,11-dioxo-1,4,5,6,7,11-hexahydro-3H-2,7-methanopyrido[1,2-a][1,4]diazonine-10-carboxamide]",2.5,15600,1.62,0.583
"O=C(NCc1c(F)cc(F)cc1F)c1cn2c(c(O)c1=O)C(=O)N1C[C@H]2CCC(F)(F)C1 [Example 3-1, (7R)-4,4-difluoro-12-hydroxy-1,11-dioxo-N-(2,4,6-trifluorobenzyl)-1,4,5,6,7,11-hexahydro-3H-2,7-methanopyrido[1,2-a][1,4]diazonine-10-carboxamide]",4.2,> 40200,71.5,0.85
"O=C(NCc1c(F)cc(F)cc1F)c1cn2c(c(O)c1=O)C(=O)N1Cc3cc(F)c(F)cc3C[C@H]2C1 [Example 88, (6S)-9,10-difluoro-1-hydroxy-2,14-dioxo-N-(2,4,6-trifluorobenzyl)-2,7,12,14-tetrahydro-6H-6,13-methanobenzo[f]pyrido[1,2-a][1,4]diazonine-3-carboxamide]",1.61,> 23400,1.62,0.269
"O=C(NCc1c(F)cc(F)cc1F)c1cn2c(c(O)c1=O)C(=O)N1CCC=C[C@H]2C1 [Example 109-2, (7S)-12-hydroxy-1,11-dioxo-N-(2,4,6-trifluorobenzyl)-1,4,7,11-tetrahydro-3H-2,7-methanopyrido[1,2-a][1,4]diazonine-10-carboxamide]",1.47,11800,4.34,0.236
"O=C(NCc1ccc(F)cc1F)c1cn2c(c(O)c1=O)C(=O)N1CCCCC[C@H]2C1 [Example 5-2, (8S)—N-(2,4-difluorobenzyl)-13-hydroxy-1,12-dioxo-1,3,4,5,6,7,8,12-octahydro-2,8-methanopyrido[1,2-a][1,4]diazecine-11-carboxamide]",2.9,19500,142,0.72
"O=C(NCc1c(F)cc(F)cc1F)c1cn2c(c(O)c1=O)C(=O)N1CCC[C@@H]3C[C@]32C1 [Example 66-1, (1aR,11aR)—N-(2,4,6-trifluorobenzyl)-7-hydroxy-6,8-dioxo-1a,2,3,4,6,8-hexahydro-1H-5,11a-methanocyclopropa[h]pyrido[1,2-a][1,4]diazonine-9-carboxamide]",1.76,11100,20.3,0.226
"O=C(NCc1ccc(F)cc1F)c1cn2c(c(O)c1=O)C(=O)N1CCCC3(CC3)[C@H]2C1 [Example 57-1, (7'S)—N-(2,4-difluorobenzyl)-12′-hydroxy-1′,11′-dioxo-1′,4′,5′,11′-tetrahydro-3′H,7′H-spiro[cyclopropane-1,6′-[2,7]methanopyrido[1,2-a][1,4]diazonine]-10′-carboxamide]",1.22,6900,2.36,0.228
"O=C(NCc1ccc(F)c(Cl)c1F)c1cn2c(c(O)c1=O)C(=O)N1C[C@@H]2CCc2ccc(F)cc21 [Example 90-2, (12S)—N-(3-chloro-2,4-difluorobenzyl)-3-fluoro-7-hydroxy-6,8-dioxo-6,8,13,14-tetrahydro-12H-5,12-methanobenzo[e]pyrido[1,2-a][1,4]diazonine-9-carboxamide]",2.42,> 20800,1.22,0.361
"C[C@@H]1CCC[C@H]2CN1C(=O)c1c(O)c(=O)c(C(=O)NCc3ccc(F)cc3F)cn12 [Example 52-1, (3R, 7S)—N-(2,4-difluorobenzyl)-12-hydroxy-3-methyl-1,11-dioxo-1,4,5,6,7,11-hexahydro-3H-2,7-methanopyrido[1,2-a][1,4]diazonine-10-carboxamide]",2.15,13100,6.18,0.245
"O=C(NCc1ccc(F)cc1F)c1cn2c(c(O)c1=O)C(=O)N1CC2CCc2ccccc21 (stereo not shown) [Example 36, N-(2,4-difluorobenzyl)-7-hydroxy-6,8-dioxo-6,8,13,14-tetrahydro-12H-5,12-methanobenzo[e]pyrido[1,2-a][1,4]diazonine-9-carboxamide]",2,17700,7.16,0.917
"O=C(NCc1c(F)cc(F)cc1F)c1cn2c(c(O)c1=O)C(=O)N1C[C@H]2CCc2cccc(F)c21 [Example 46-2, (12R)-4-fluoro-7-hydroxy-6,8-dioxo-N-(2,4,6-trifluorobenzyl)-6,8,13,14-tetrahydro-12H-5,12-methanobenzo[e]pyrido[1,2-a][1,4]diazonine-9-carboxamide]",1.41,12500,2.91,0.204
"O=C(NCc1ccc(F)cc1F)c1cn2c(c(O)c1=O)C(=O)N1CCCOC[C@H]2C1 [Example 1-2, (R)-N-(2,4-difluorobenzyl)-13-hydroxy-1,12-dioxo-1,4,5,7,8,12-hexahydro-3H-2,8-methanopyrido[1,2-d][1,4,7]oxadiazecine-11-carboxamide]",5.7,20700,13.9,1.37
